# Reference: ChEMBL document CHEMBL5518222, “Retro-Inverso Collagen Modulator Peptide Derived from Serpin A1 with Enhanced Stability and Activity In Vitro” (J Med Chem, 2024)
# Activity calls are given as the source filed them. The calls are words filed in the database; no cut-off is given here. Peptide text beside a SMILES is read from it. * marks the point of attachment. Palmitoyl = CCCCCCCCCCCCCCCC(=O)*
# Legend:
# [1] = Stability of compound in human skin homogenate assessed as dermal protease mediated stability by measuring compound remaining measured after 24 hrs by HPLC-MS/MS analysis; format: ADME, tissue-based, Skin of body; settings: read-out: Stability
# NHDF [2] = experiment: Upregulation of collagen level in neonatal HDF cell lysate at 20 uM incubated for 72 hrs by Western blot analysis; format: functional, subcellular; settings: Homo sapiens
# NHDF [3] = experiment: Cytotoxicity against neonatal HDF cells assessed as reduction in cell viability incubated for 72 hrs by MTS assay; format: toxicity, cell-based; settings: human
# [4] = target: Matrix metalloproteinase-9 (Homo sapiens) (UniProt P14780); experiment: Inhibition of MMP-9 (unknown origin)
# Sequence of Matrix metalloproteinase-9 (Homo sapiens) (P14780 whole entry): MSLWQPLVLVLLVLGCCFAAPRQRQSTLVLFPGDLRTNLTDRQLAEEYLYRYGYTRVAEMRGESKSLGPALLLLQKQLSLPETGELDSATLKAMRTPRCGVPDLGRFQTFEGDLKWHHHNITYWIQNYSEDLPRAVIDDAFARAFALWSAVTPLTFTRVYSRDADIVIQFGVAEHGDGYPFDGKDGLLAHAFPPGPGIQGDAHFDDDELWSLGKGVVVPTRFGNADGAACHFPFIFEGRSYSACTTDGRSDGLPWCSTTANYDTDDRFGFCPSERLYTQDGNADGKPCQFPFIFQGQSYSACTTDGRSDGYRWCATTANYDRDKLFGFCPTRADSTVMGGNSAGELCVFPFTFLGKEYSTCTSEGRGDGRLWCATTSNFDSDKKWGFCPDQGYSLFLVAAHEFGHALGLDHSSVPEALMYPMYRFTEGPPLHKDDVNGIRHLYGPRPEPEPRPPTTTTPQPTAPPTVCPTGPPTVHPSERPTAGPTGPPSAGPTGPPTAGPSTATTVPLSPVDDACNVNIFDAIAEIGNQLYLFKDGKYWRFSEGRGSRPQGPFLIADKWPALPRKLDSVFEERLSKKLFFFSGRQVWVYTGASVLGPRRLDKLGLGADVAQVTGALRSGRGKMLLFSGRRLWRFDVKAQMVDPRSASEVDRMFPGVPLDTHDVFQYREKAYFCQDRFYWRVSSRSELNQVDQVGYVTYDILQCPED
# [5] = target: T1, Neutrophil elastase (Homo sapiens) (UniProt P08246); experiment: Inhibition of neutrophil elastase (unknown origin)
# T1 sequence (whole entry): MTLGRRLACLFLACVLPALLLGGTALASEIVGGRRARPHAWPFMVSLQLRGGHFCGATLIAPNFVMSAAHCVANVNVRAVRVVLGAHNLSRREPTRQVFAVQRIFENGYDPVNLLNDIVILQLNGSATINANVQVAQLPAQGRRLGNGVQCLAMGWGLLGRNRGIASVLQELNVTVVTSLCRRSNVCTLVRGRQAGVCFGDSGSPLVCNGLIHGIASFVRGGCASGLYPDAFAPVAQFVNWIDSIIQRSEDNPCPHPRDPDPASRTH
# NHDF [6] = experiment: Inhibition of cell invasion in neonatal HDF cells assessed as decrease in number of migrated cells in acceptor chamber at 20 uM incubated for 72 hrs by Boyden chamber invasion assay; format: functional, cell-based; settings: Homo sapiens
# NHDF [7] = experiment: Downregulation of enzyme-digested low molecular weight collagen level in neonatal HDF cell conditioned media at 20 uM incubated for 48 hrs by Western blot analysis; format: functional, cell-based; settings: Homo sapiens
# [8] = Upregulation of procollagen level in neonatal HDF cell conditioned media at 20 uM incubated for 72 hrs by Western blot analysis relative to control; format: functional, Homo sapiens, NHDF
remaining at 24 h [1],inhibition [4],inhibition [5],Molecule,Activity (NHDF [2]),Activity (NHDF [3]),inhibition (NHDF [6]),Activity (NHDF [7]),Activity [8]
99.6%,inactive,inactive,CC(=O)N[C@H](CC(N)=O)C(=O)N[C@@H](C(=O)N[C@@H](C(=O)N[C@H](CCCCN)C(N)=O)C(C)C)C(C)C,Active,Non-Toxic,Active,,
,,,CC(=O)N[C@@H](CCCCN)C(=O)N[C@H](C(=O)N[C@H](C(=O)N[C@@H](CC(N)=O)C(N)=O)C(C)C)C(C)C,Active,Non-Toxic,,Active,87%
,,,CC(=O)N[C@H](CCCCN)C(=O)N[C@@H](C(=O)N[C@@H](C(=O)N[C@H](CC(N)=O)C(N)=O)C(C)C)C(C)C,Active,Non-Toxic,,,
,,,CSCC[C@H](NC(C)=O)C(=O)NCC(=O)N[C@@H](CCCCN)C(=O)N[C@H](C(N)=O)C(C)C (Ac-MGKV-NH2),Active,Non-Toxic,,Active,116%
,,,CC(=O)N1CCC[C@H]1C(=O)N[C@H](C(=O)N[C@@H](CCC(N)=O)C(=O)N[C@@H](CCCCN)C(N)=O)[C@@H](C)O (Ac-PTQK-NH2),Active,Non-Toxic,,Active,31%
,,,CC(=O)N[C@H](C(=O)N[C@@H](CC(N)=O)C(=O)N1CCC[C@H]1C(=O)N[C@H](C(N)=O)[C@@H](C)O)C(C)C (Ac-VNPT-NH2),Active,Non-Toxic,,Active,48%
36%,,,CCCCCCCCCCCCCCCC(=O)N[C@@H](CCCCN)C(=O)N[C@H](C(=O)N[C@H](C(=O)N[C@@H](CCCCN)C(=O)N[C@@H](CO)C(=O)O)[C@@H](C)O)[C@@H](C)O (Palmitoyl-KTTKS-OH),,,,,
,,,Ac-MGKVVNPTQK-NH2,Active,,,Active,57%
